≈ marks a conversion by molar mass, not a printed value.
Key:
Assay type in all cases: functional
Streptococcus pneumoniae [1] = assay: Antibacterial activity against erythromycin-susceptible Streptococcus pneumoniae ATCC 49619
Streptococcus pneumoniae [2] = assay: Antibacterial activity against erythromycin-resistant Streptococcus pneumoniae A22072 expressing mefA gene
Pseudomonas aeruginosa = assay: Antibacterial activity against Pseudomonas aeruginosa ATCC 27853
Staphylococcus aureus [3] = assay: Antibacterial activity against erythromycin-susceptible Staphylococcus aureus ATCC 25923
Streptococcus pyogenes [4] = assay: Antibacterial activity against erythromycin-resistant Streptococcus pyogenes isolate R2
Streptococcus pyogenes [5] = assay: Antibacterial activity against erythromycin-susceptible Streptococcus pyogenes isolate S2
Streptococcus pneumoniae [6] = assay: Antibacterial activity against erythromycin-resistant Streptococcus pneumoniae B1 expressing ermB gene
Escherichia coli = assay: Antibacterial activity against Escherichia coli ATCC 25922
Streptococcus pneumoniae [7] = assay: Antibacterial activity against erythromycin-resistant Streptococcus pneumoniae AB11 expressing ermB/mefA gene
Staphylococcus aureus [8] = assay: Antibacterial activity against methicillin-susceptible Staphylococcus aureus ATCC 29213

SMILES	MIC (Streptococcus pneumoniae [1])	MIC (Streptococcus pneumoniae [2])	MIC (Pseudomonas aeruginosa)	MIC (Staphylococcus aureus [3])	MIC (Streptococcus pyogenes [4])	MIC (Streptococcus pyogenes [5])	MIC (Streptococcus pneumoniae [6])	MIC (Escherichia coli)	MIC (Streptococcus pneumoniae [7])	MIC (Staphylococcus aureus [8])
CC[C@H]1OC(=O)[C@H](C)[C@@H](O[C@H]2C[C@@](C)(OC)[C@@H](OC(=O)NCc3cn(Cc4ccccc4F)nn3)[C@H](C)O2)[C@H](C)[C@@H](O[C@@H]2O[C@H](C)C[C@H](N(C)C)[C@H]2O)[C@](C)(O)C[C@@H](C)CN(C)[C@H](C)[C@H]2OC(=O)O[C@@]21C	0.5 µg/mL (≈ 0.496 µM)	1 µg/mL (≈ 0.993 µM)	64 µg/mL (≈ 63.5 µM)	4 µg/mL (≈ 3.97 µM)	128 µg/mL (≈ 127 µM)	0.125 µg/mL (≈ 0.124 µM)	2 µg/mL (≈ 1.99 µM)	128 µg/mL (≈ 127 µM)	0.25 µg/mL (≈ 0.248 µM)	32 µg/mL (≈ 31.8 µM)
CC[C@H]1OC(=O)[C@H](C)[C@@H](O[C@H]2C[C@@](C)(OC)[C@@H](OC(=O)NCc3cn(Cc4ccc(Cl)cc4)nn3)[C@H](C)O2)[C@H](C)[C@@H](O[C@@H]2O[C@H](C)C[C@H](N(C)C)[C@H]2O)[C@](C)(O)C[C@@H](C)CN(C)[C@H](C)[C@H]2OC(=O)O[C@@]21C	1 µg/mL (≈ 0.977 µM)	1 µg/mL (≈ 0.977 µM)	64 µg/mL (≈ 62.5 µM)	4 µg/mL (≈ 3.91 µM)	64 µg/mL (≈ 62.5 µM)	0.125 µg/mL (≈ 0.122 µM)	8 µg/mL (≈ 7.82 µM)	64 µg/mL (≈ 62.5 µM)	4 µg/mL (≈ 3.91 µM)	32 µg/mL (≈ 31.3 µM)
CC[C@H]1OC(=O)[C@H](C)[C@@H](O[C@H]2C[C@@](C)(OC)[C@@H](OC(=O)NCc3cn(Cc4ccccc4)nn3)[C@H](C)O2)[C@H](C)[C@@H](O[C@@H]2O[C@H](C)C[C@H](N(C)C)[C@H]2O)[C@](C)(O)C[C@@H](C)CN(C)[C@H](C)[C@H]2OC(=O)O[C@@]21C	0.5 µg/mL (≈ 0.505 µM)	8 µg/mL (≈ 8.09 µM)	64 µg/mL (≈ 64.7 µM)	4 µg/mL (≈ 4.04 µM)	128 µg/mL (≈ 129 µM)	0.06 µg/mL (≈ 0.0607 µM)	8 µg/mL (≈ 8.09 µM)	128 µg/mL (≈ 129 µM)	4 µg/mL (≈ 4.04 µM)	32 µg/mL (≈ 32.3 µM)
CC[C@H]1OC(=O)[C@H](C)[C@@H](O[C@H]2C[C@@](C)(OC)[C@@H](OC(=O)NCc3cn(Cc4ccc(C)cc4)nn3)[C@H](C)O2)[C@H](C)[C@@H](O[C@@H]2O[C@H](C)C[C@H](N(C)C)[C@H]2O)[C@](C)(O)C[C@@H](C)CN(C)[C@H](C)[C@@H](OC(=O)NCc2ccccc2)[C@]1(C)O	0.125 µg/mL (≈ 0.113 µM)	0.125 µg/mL (≈ 0.113 µM)	32 µg/mL (≈ 28.8 µM)	0.5 µg/mL (≈ 0.45 µM)	32 µg/mL (≈ 28.8 µM)	< 0.002 µg/mL	0.25 µg/mL (≈ 0.225 µM)	32 µg/mL (≈ 28.8 µM)	0.25 µg/mL (≈ 0.225 µM)	16 µg/mL (≈ 14.4 µM)
CC[C@H]1OC(=O)[C@H](C)[C@@H](O[C@H]2C[C@@](C)(OC)[C@@H](OC(=O)NCc3cn(Cc4ccccc4)nn3)[C@H](C)O2)[C@H](C)[C@@H](O[C@@H]2O[C@H](C)C[C@H](N(C)C)[C@H]2O)[C@](C)(O)C[C@@H](C)CN(C)[C@H](C)[C@@H](OC(=O)NCc2ccncc2)[C@]1(C)O	0.5 µg/mL (≈ 0.456 µM)	0.06 µg/mL (≈ 0.0547 µM)	64 µg/mL (≈ 58.3 µM)	1 µg/mL (≈ 0.911 µM)	32 µg/mL (≈ 29.2 µM)	0.03 µg/mL (≈ 0.0273 µM)	0.125 µg/mL (≈ 0.114 µM)	32 µg/mL (≈ 29.2 µM)	0.25 µg/mL (≈ 0.228 µM)	32 µg/mL (≈ 29.2 µM)
CC[C@H]1OC(=O)[C@H](C)[C@@H](O[C@H]2C[C@@](C)(OC)[C@@H](OC(=O)NCc3cn(Cc4cccc(Cl)c4)nn3)[C@H](C)O2)[C@H](C)[C@@H](O[C@@H]2O[C@H](C)C[C@H](N(C)C)[C@H]2O)[C@](C)(O)C[C@@H](C)CN(C)[C@H](C)[C@H]2OC(=O)O[C@@]21C	1 µg/mL (≈ 0.977 µM)	0.5 µg/mL (≈ 0.488 µM)	64 µg/mL (≈ 62.5 µM)	4 µg/mL (≈ 3.91 µM)	16 µg/mL (≈ 15.6 µM)	0.06 µg/mL (≈ 0.0586 µM)	4 µg/mL (≈ 3.91 µM)	128 µg/mL (≈ 125 µM)	1 µg/mL (≈ 0.977 µM)	32 µg/mL (≈ 31.3 µM)
CC[C@H]1OC(=O)[C@H](C)[C@@H](O[C@H]2C[C@@](C)(OC)[C@@H](OC(=O)NCc3cn(Cc4ccccc4)nn3)[C@H](C)O2)[C@H](C)[C@@H](O[C@@H]2O[C@H](C)C[C@H](N(C)C)[C@H]2O)[C@](C)(O)C[C@@H](C)CN(C)[C@H](C)[C@@H](OC(=O)NCCc2ccccc2)[C@]1(C)O	0.125 µg/mL (≈ 0.113 µM)	0.125 µg/mL (≈ 0.113 µM)	8 µg/mL (≈ 7.2 µM)	0.25 µg/mL (≈ 0.225 µM)	32 µg/mL (≈ 28.8 µM)	< 0.002 µg/mL	0.25 µg/mL (≈ 0.225 µM)	16 µg/mL (≈ 14.4 µM)	0.25 µg/mL (≈ 0.225 µM)	16 µg/mL (≈ 14.4 µM)
CC[C@H]1OC(=O)[C@H](C)[C@@H](O[C@H]2C[C@@](C)(OC)[C@@H](OC(=O)NCc3cn(Cc4ccc(F)cc4)nn3)[C@H](C)O2)[C@H](C)[C@@H](O[C@@H]2O[C@H](C)C[C@H](N(C)C)[C@H]2O)[C@](C)(O)C[C@@H](C)CN(C)[C@H](C)[C@H]2OC(=O)O[C@@]21C	1 µg/mL (≈ 0.993 µM)	1 µg/mL (≈ 0.993 µM)	64 µg/mL (≈ 63.5 µM)	4 µg/mL (≈ 3.97 µM)	32 µg/mL (≈ 31.8 µM)	0.125 µg/mL (≈ 0.124 µM)	8 µg/mL (≈ 7.94 µM)	128 µg/mL (≈ 127 µM)	4 µg/mL (≈ 3.97 µM)	32 µg/mL (≈ 31.8 µM)

From ChEMBL document CHEMBL4052714, “Synthesis and antibacterial activity of novel 4″-O-(1-aralkyl-1,2,3-triazol-4-methyl-carbamoyl) azithromycin analogs” (2017)
